Results as given in patent publication US11851391B2, “Antifungal compounds and methods of forming the same” (University of Kentucky Research Foundation, priority 2018, dated 2023).
≈ marks a conversion by molar mass, not a printed value. Like-named read-outs stand apart in the source and are kept apart here.

Experiments:
[1] = test system: Candida glabrata ATCC 2001 (strain H); assay: MIC determination, in vitro antifungal assay (CLSI M27-A3); format: cell-based; settings: MIC-0, 48 h at 35° C.
Description: (§1) The activity of N,N′-diaryl-bishydrazones 7-22 was tested against a panel of seven strains of C. albicans: ATCC 10231(R) (A), ATCC 64124(R) (B), ATCC MYA-2876(S) (C), ATCC 90819(R) (D), ATCC MYA-2310(S) (E), ATCC MYA-1237(R) (F), and ATCC MYA-1003(R) (G). The activity of these bishydrazones 7-22 was also explored against a panel of three non-albicans Candida strains: C. glabrata ATCC 2001 (H), C. krusei ATCC 6258 (I), and C. parapsilosis ATCC 22019 (J). Finally, the activity of these bishydrazones 7-22 was explored against three Aspergillus strains: A. flavus ATCC MYA-3631 (K), A. nidulans ATCC 38163 (L), and A. terreus ATCC MYA-3633 (M).
(§2) Candida albicans ATCC 10231 (A), C. albicans ATCC 64124 (B), and C. albicans ATCC MYA-2876 (C) were kindly provided by Dr. Jon Y. Takemoto (Utah State University, Logan, UT, USA). C. albicans ATCC 90819 (D), C. albicans ATCC MYA-2310 (E), C. albicans ATCC MYA-1237 (F), C. albicans ATCC MYA-1003 (G), Candida glabrata ATCC 2001 (H), Candida krusei ATCC 6258 (I), Candida parapsilosis ATCC 22019 (J), Aspergillus flavus ATCC MYA-3631 (K), and Aspergillus terreus ATCC MYA-3633 (M) were obtained from the American Type Culture Collection (ATCC; Manassas, VA, USA). Aspergillus nidulans ATCC 38163 (L) was received from Dr. Jon S. Thorson (University of Kentucky, Lexington, KY, USA). Filamentous fungi and yeasts were cultivated at 35° C. in RPMI 1640 medium (with 1-glutamine, without sodium biocarbonate, Sigma-Aldrich, St. Louis, MO) buffered to a pH of 7.0 with 0.165 M morpholinepropanesulfonic acid (MOPS) buffer (Sigma-Aldrich).
(§3) A single colony of freshly prepared yeast cells was used to inoculate 5 mL of yeast extract peptone dextrose (YPD) broth prior to incubation overnight with shaking at 200 rpm at 35° C. From the actively growing yeast culture, 100 μL were then transferred to 900 μL of sterile ddH2O and re-adjusted to achieve OD600 of 0.12 (˜1×10^6 CFU/mL). The cell suspension was further diluted to achieve 2-4×10^3 CFU/mL in RPMI 1640 medium. […] The final concentration of DMSO was ensured to be <1.25% in all experiments.

[2] = test system: Candida krusei ATCC 6258 (strain I); assay: as above; format: cell-based; settings: MIC-0, 48 h at 35° C.
Description: as §1, §2, §3

[3] = test system: C. albicans ATCC 90819(R) (strain D); assay: as above; format: cell-based, Candida albicans; settings: Candida albicans, ATCC90819, 48 h, MIC-0, 48 h at 35° C., read-out: MIC
Description: as §1, §2
as §3, with “The MIC values of compounds 7a-24c against yeast cells (strains A-J) were determined in 96-well plates as described in the CLSI document M27-A3 with minor modifications. A” for “A”, “experiments. The MIC values for compounds 7a-24c and CAS were defined as the minimum drug concentration that yielded complete inhibition (also known as MIC-0).” for “experiments.”

[4] = test system: C. albicans ATCC 64124(R) (strain B); assay: as above; format: cell-based, Candida albicans; settings: strain B, MIC-0, 48 h at 35° C.
Description: as §1, §2
as §3, with “The MIC values of compounds 7a-24c against yeast cells (strains A-J) were determined in 96-well plates as described in the CLSI document M27-A3 with minor modifications. A” for “A”, “experiments. The MIC values for compounds 7a-24c and CAS were defined as the minimum drug concentration that yielded complete inhibition (also known as MIC-0).” for “experiments.”

[5] = test system: C. albicans ATCC MYA-2310(S) (strain E); assay: as above; format: cell-based, Candida albicans; settings: MIC-0, 48 h at 35° C.
Description: as §1, §2
as §3, with “The MIC values of compounds 7a-24c against yeast cells (strains A-J) were determined in 96-well plates as described in the CLSI document M27-A3 with minor modifications. A” for “A”, “experiments. The MIC values for compounds 7a-24c and CAS were defined as the minimum drug concentration that yielded complete inhibition (also known as MIC-0).” for “experiments.”

[6] = test system: C. albicans ATCC MYA-1237(R) (strain F); assay: as above; format: cell-based, Candida albicans; settings: MIC-0, 48 h at 35° C.
Description: as §1, §2
as §3, with “The MIC values of compounds 7a-24c against yeast cells (strains A-J) were determined in 96-well plates as described in the CLSI document M27-A3 with minor modifications. A” for “A”, “experiments. The MIC values for compounds 7a-24c and CAS were defined as the minimum drug concentration that yielded complete inhibition (also known as MIC-0).” for “experiments.”

[7] = test system: Aspergillus terreus ATCC MYA-3633 (strain M); assay: MIC determination against filamentous fungi (CLSI M38-A2); format: cell-based; settings: Aspergillus terreus, 48 h, MIC-0, 48 h at 35° C., read-out: MIC
Description: as §1, §2
(§4) Similarly, the MIC values of compounds 7a-24c, as well as that of the two control drugs against filamentous fungi (strains K-M) were determined as previously described in CLSI document M38-A2. Spores were harvested from sporulating cultures growing on potato dextrose agar (PDA) by filtration through sterile glass wool and enumerated by using a hemocytometer to obtain the desired inoculum size. […] Spore suspensions were added to the wells to afford a final concentration of 5×10^5 CFU/mL. The plates were incubated at 35° C. for 48 h. The MIC values of compounds 7a-24c and CAS against filamentous fungi were based on the complete inhibition of growth when compared to the growth control (MIC-0). […] Each test was performed in triplicate.

[8] = test system: Aspergillus flavus ATCC MYA-3631 (strain K); assay: as above; format: cell-based; settings: Aspergillus flavus, 48 h, MIC-0, 48 h at 35° C., read-out: MIC
Description: as §1, §2, §4

[9] = test system: Aspergillus nidulans ATCC 38163 (strain L); assay: as above; format: cell-based; settings: Aspergillus nidulans, ATCC38163, 48 h, MIC-0, 48 h at 35° C., read-out: MIC
Description: as §1, §2, §4

[10] = test system: C. albicans ATCC MYA-2876(S) (strain C); assay: MIC determination, in vitro antifungal assay (CLSI M27-A3); format: cell-based, Candida albicans; settings: MIC-0, 48 h at 35° C.
Description: as §1, §2, §3

[11] = test system: C. albicans ATCC MYA-1003(R) (strain G); assay: as above; format: cell-based, Candida albicans; settings: MIC-0, 48 h at 35° C.
Description: as §1, §2, §3

[12] = test system: Candida albicans ATCC 10231(R) (strain A); assay: as above; format: cell-based; settings: MIC-0 (no visible growth), 48 h at 35° C.
Description: as §1, §2
as §3, with “The MIC values of compounds 7a-24c against yeast cells (strains A-J) were determined in 96-well plates as described in the CLSI document M27-A3 with minor modifications. A” for “A”, “experiments. The MIC values for compounds 7a-24c and CAS were defined as the minimum drug concentration that yielded complete inhibition (also known as MIC-0).” for “experiments.”

[13] = test system: Candida parapsilosis ATCC 22019 (strain J); assay: as above; format: cell-based; settings: strain J, MIC-0, 48 h at 35° C.
Description: as §1, §2
as §3, with “The MIC values of compounds 7a-24c against yeast cells (strains A-J) were determined in 96-well plates as described in the CLSI document M27-A3 with minor modifications. A” for “A”, “experiments. The MIC values for compounds 7a-24c and CAS were defined as the minimum drug concentration that yielded complete inhibition (also known as MIC-0).” for “experiments.”

[14] = Nakaseomyces glabratus, ATCC2001, 48 h, read-out: MIC
[15] = Pichia kudriavzevii, ATCC6258, 48 h, read-out: MIC
[16] = Candida albicans, ATCC64124, 48 h, read-out: MIC
[17] = Candida albicans, 48 h, read-out: MIC
[18] = Candida albicans, ATCC10231, 48 h, read-out: MIC
[19] = Lodderomyces parapsilosis, ATCC22019, 48 h, read-out: MIC

Compound | MIC [1, 14] [µg/mL] | MIC [2, 15] [µg/mL] | MIC [3] [µg/mL] | MIC [4, 16] [µg/mL] | MIC [5, 17] [µg/mL] | MIC [6, 17] [µg/mL] | MIC [7] [µg/mL] | MIC [8] [µg/mL] | MIC [9] [µg/mL] | MIC [10, 17] [µg/mL] | MIC [11, 17] [µg/mL] | MIC [12, 18] [µg/mL] | MIC [13, 19] [µg/mL] | MIC [1] [µg/mL] | MIC [2] [µg/mL] | MIC [4] [µg/mL] | MIC [5] [µg/mL] | MIC [10] [µg/mL] | MIC [12] [µg/mL] | other results
CC[C@H](C)C[C@H](C)CCCCCCCCC(=O)N[C@H]1C[C@@H](O)[C@@H](NCCN)NC(=O)[C@@H]2[C@@H](O)CCN2C(=O)[C@H]([C@H](O)CCN)NC(=O)[C@H]([C@H](O)[C@@H](O)c2ccc(O)cc2)NC(=O)[C@@H]2C[C@@H](O)CN2C(=O)[C@H]([C@@H](C)O)NC1=O [CAS, caspofungin, reference compound] | 0.06 (≈ 0.0549 µM) | 0.48 (≈ 0.439 µM) | 0.12 (≈ 0.11 µM) | 0.24 (≈ 0.22 µM) | 0.12 (≈ 0.11 µM) | 0.24 (≈ 0.22 µM) | > 31.3 | > 31.3 | > 31.3 | 0.06 (≈ 0.0549 µM) | 0.48 (≈ 0.439 µM) | 0.975 (≈ 0.892 µM) | 1.95 (≈ 1.78 µM) | – | – | – | – | – | – | –
Fc1ccccc1N/N=C/c1ccc(-c2cccc(/C=N/Nc3ccccc3F)c2)cc1 [Compound 10a] | > 31.3 | 1.95 (≈ 4.57 µM) | 15.6 (≈ 36.6 µM) | 7.8 (≈ 18.3 µM) | 31.3 (≈ 73.4 µM) | > 31.3 | > 31.3 | 3.9 (≈ 9.14 µM) | 7.8 (≈ 18.3 µM) | > 31.3 | 7.8 (≈ 18.3 µM) | 7.8 (≈ 18.3 µM) | 15.6 (≈ 36.6 µM) | – | – | – | – | – | – | –
Fc1ccccc1N/N=C/c1ccc(-c2ccc(/C=N/Nc3ccccc3F)cc2)cc1 [Compound 10b] | > 31.3 | 3.9 (≈ 9.14 µM) | 31.3 (≈ 73.4 µM) | > 31.3 | > 31.3 | > 31.3 | > 31.3 | > 31.3 | 31.3 (≈ 73.4 µM) | 15.6 (≈ 36.6 µM) | 15.6 (≈ 36.6 µM) | 3.9 (≈ 9.14 µM) | > 31.3 | – | – | – | – | – | – | –
COc1cccc(N/N=C(\C)c2ccc(-c3ccc(/C(C)=N/Nc4cccc(OC)c4)cc3)cc2)c1 [Compound 11c] | 15.6 (≈ 32.6 µM) | 0.98 to 3.9 (≈ 2.05 to 8.15 µM) | 31.3 (≈ 65.4 µM) | 0.98 to 3.9 (≈ 2.05 to 8.15 µM) | 15.6 (≈ 32.6 µM) | 31.3 (≈ 65.4 µM) | > 31.3 | > 31.3 | > 31.3 | 15.6 (≈ 32.6 µM) | – | 0.98 to 3.9 (≈ 2.05 to 8.15 µM) | 15.6 (≈ 32.6 µM) | 15.6 (≈ 32.6 µM) | 0.98 (≈ 2.05 µM) | 0.98 (≈ 2.05 µM) | 15.6 (≈ 32.6 µM) | 15.6 (≈ 32.6 µM) | 0.98 (≈ 2.05 µM) | MIC [13]: 15.6 µg/mL (≈ 32.6 µM)
COc1ccc(N/N=C(\C)c2ccc(-c3ccc(/C(C)=N/Nc4ccc(OC)cc4)cc3)cc2)cc1 [Compound 15c] | 7.8 to 15.6 (≈ 16.3 to 32.6 µM) | 7.8 to 15.6 (≈ 16.3 to 32.6 µM) | 31.3 (≈ 65.4 µM) | 7.8 to 15.6 (≈ 16.3 to 32.6 µM) | 7.8 to 15.6 (≈ 16.3 to 32.6 µM) | 7.8 to 15.6 (≈ 16.3 to 32.6 µM) | > 31.3 | > 31.3 | > 31.3 | 7.8 to 15.6 (≈ 16.3 to 32.6 µM) | 7.8 to 15.6 (≈ 16.3 to 32.6 µM) | 7.8 to 15.6 (≈ 16.3 to 32.6 µM) | > 31.3 | 7.8 (≈ 16.3 µM) | 15.6 (≈ 32.6 µM) | 15.6 (≈ 32.6 µM) | 15.6 (≈ 32.6 µM) | 15.6 (≈ 32.6 µM) | 15.6 (≈ 32.6 µM) | MIC [6]: 7.8 µg/mL (≈ 16.3 µM); MIC [11]: 7.8 µg/mL (≈ 16.3 µM)
